Data: PubChem BioAssay (NCI)
Values joined by “and” are separate entries in the source; they are usually repeats but may differ in a detail not shown here. Equal entries are not always repeated.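 Where inhibition never reached the appropriate level, the endpoint shown equals the highest concentration tested. Otherwise, values were interpolated linearly from a five-concentration, 48-hour dose response in 96-well plates. GI50 = concentration required for 50% inhibition of growth. TGI marks complete inhibition of growth.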

Tests used:
Experiment in all cases: NCI tumour cell line growth inhibition, 48 h
MDA-MB-435 = system: MDA-MB-435
HS 578T breast = system: HS 578T breast
OVCAR-8 ovarian = system: OVCAR-8 ovarian
IGROV1 ovarian = system: IGROV1 ovarian
LOX IMVI melanoma = system: LOX IMVI melanoma
SK-MEL-2 melanoma = system: SK-MEL-2 melanoma
T-47D breast = system: T-47D breast
MCF7 breast = system: MCF7 breast
HOP-92 NSCLC = system: HOP-92 NSCLC
A549 NSCLC = system: A549 NSCLC
MALME-3M melanoma = system: MALME-3M melanoma
A498 renal = system: A498 renal
SF-268 CNS = system: SF-268 CNS
SF-539 CNS = system: SF-539 CNS

With `O=C1c2ccccc2C(=O)N1CCCCCCNOCCCN1C(=O)c2ccccc2C1=O` the TGI (MDA-MB-435) was 74.7 µM, the TGI (HS 578T breast) was greater than 100 µM and the TGI (OVCAR-8 ovarian) was greater than 100 µM. The TGI (IGROV1 ovarian) was greater than 100 µM, the TGI (LOX IMVI melanoma) was greater than 100 µM and the TGI (SK-MEL-2 melanoma) was 47.8 µM. The TGI (T-47D breast) was 65 µM, the TGI (MCF7 breast) was 88.4 µM and the TGI (HOP-92 NSCLC) was greater than 100 µM. It also gave a TGI (A549 NSCLC) greater than 100 µM, a TGI (MALME-3M melanoma) greater than 100 µM and a TGI (A498 renal) of 93.8 µM. It also gave a TGI (SF-268 CNS) greater than 100 µM.
`CC(=O)[O-].CC(=O)[O-].[NH2-].[Pt+2].c1ccncc1` was tested, and the GI50 (MDA-MB-435) was 53.2 µM, the TGI (MDA-MB-435) was greater than 100 µM and the GI50 (HS 578T breast) was 98.7 µM. It also gave a TGI (HS 578T breast) greater than 100 µM, a TGI (SF-539 CNS) of 55.1 µM and a TGI (OVCAR-8 ovarian) of 40.1 µM. For the same compound, the TGI (IGROV1 ovarian) was greater than 100 µM, the TGI (LOX IMVI melanoma) was greater than 100 µM and the TGI (SK-MEL-2 melanoma) was greater than 100 µM. For the same compound, the GI50 (T-47D breast) was 59.4 µM, the TGI (T-47D breast) was greater than 100 µM and the GI50 (MCF7 breast) was 19.4 µM. The TGI (MCF7 breast) was 65.9 µM, the TGI (HOP-92 NSCLC) was greater than 100 µM and the TGI (A549 NSCLC) was greater than 100 µM. The TGI (MALME-3M melanoma) was greater than 100 µM, the TGI (A498 renal) was greater than 100 µM and the TGI (SF-268 CNS) was greater than 100 µM.
Compound `Cn1cc(C[C@@H](N)C(=O)O)c2ccccc21` has a TGI (MDA-MB-435) greater than 100 µM, a GI50 (HS 578T breast) greater than 100 µM and a TGI (HS 578T breast) greater than 100 µM. The TGI (SF-539 CNS) was greater than 100 µM, the TGI (OVCAR-8 ovarian) was greater than 100 µM and the TGI (IGROV1 ovarian) was greater than 100 µM. It also gave a TGI (LOX IMVI melanoma) greater than 100 µM, a TGI (SK-MEL-2 melanoma) greater than 100 µM and a TGI (T-47D breast) greater than 100 µM. It also gave a TGI (MCF7 breast) greater than 100 µM, a GI50 (HOP-92 NSCLC) greater than 100 µM and a TGI (HOP-92 NSCLC) greater than 100 µM. It also gave a TGI (A549 NSCLC) greater than 100 µM, a TGI (MALME-3M melanoma) greater than 100 µM and a TGI (A498 renal) greater than 100 µM. The TGI (SF-268 CNS) was greater than 100 µM.
`Cc1cc2c(cc1C)[n+](=O)c(C(=O)N1CCN(c3ccc([N+](=O)[O-])cc3)CC1)c(C)n2[O-]` was tested, and the TGI (MDA-MB-435) was greater than 100 µM, the TGI (HS 578T breast) was greater than 100 µM and the TGI (SF-539 CNS) was 35.4 µM. It also gave a TGI (OVCAR-8 ovarian) greater than 100 µM, a TGI (IGROV1 ovarian) of 87.7 µM and a TGI (LOX IMVI melanoma) greater than 100 µM. The TGI (SK-MEL-2 melanoma) was greater than 100 µM, the TGI (T-47D breast) was greater than 100 µM and the TGI (MCF7 breast) was greater than 100 µM. The TGI (HOP-92 NSCLC) was greater than 100 µM, the TGI (A549 NSCLC) was greater than 100 µM and the TGI (MALME-3M melanoma) was greater than 100 µM. The TGI (A498 renal) was greater than 100 µM and the TGI (SF-268 CNS) was 57.1 µM.
In the case of `COc1ccc(-n2c(C)nc3ccc(NC4OCC(O)C(O)C4O)cc3c2=O)cc1` (stereo not drawn), the TGI (MDA-MB-435) is reported as greater than 100 µM, the TGI (HS 578T breast) is reported as greater than 100 µM and the TGI (OVCAR-8 ovarian) is reported as 94.6 µM and 82.3 µM. For the same compound, the TGI (IGROV1 ovarian) was greater than 100 µM, the TGI (LOX IMVI melanoma) was 42.6 µM and 50.8 µM and the TGI (SK-MEL-2 melanoma) was greater than 100 µM. For the same compound, the TGI (T-47D breast) was greater than 100 µM, the TGI (MCF7 breast) was greater than 100 µM and the TGI (MALME-3M melanoma) was greater than 100 µM. It also gave a TGI (A498 renal) greater than 100 µM and a TGI (SF-268 CNS) greater than 100 µM.
Compound `C#CCOC(=O)C(N)CSSCC(N)C(=O)O` (stereo not drawn) has a TGI (MDA-MB-435) greater than 100 µM, a TGI (HS 578T breast) greater than 100 µM and a TGI (SF-539 CNS) greater than 100 µM. It also gave a TGI (OVCAR-8 ovarian) greater than 100 µM, a TGI (IGROV1 ovarian) greater than 100 µM and a TGI (LOX IMVI melanoma) greater than 100 µM. It also gave a TGI (SK-MEL-2 melanoma) greater than 100 µM, a TGI (T-47D breast) greater than 100 µM and a TGI (MCF7 breast) greater than 100 µM. The TGI (HOP-92 NSCLC) was greater than 100 µM, the TGI (A549 NSCLC) was greater than 100 µM and the TGI (MALME-3M melanoma) was greater than 100 µM. The TGI (A498 renal) was greater than 100 µM and the TGI (SF-268 CNS) was greater than 100 µM.
With `O=c1cc(CC(O)(C(F)(F)Cl)C(F)(F)Cl)[nH]n1-c1ccccc1` the TGI (MDA-MB-435) was greater than 100 µM, the TGI (HS 578T breast) was greater than 100 µM and the TGI (SF-539 CNS) was greater than 100 µM. It also gave a TGI (OVCAR-8 ovarian) greater than 100 µM, a TGI (IGROV1 ovarian) greater than 100 µM and a TGI (LOX IMVI melanoma) greater than 100 µM. The TGI (T-47D breast) was greater than 100 µM, the TGI (MCF7 breast) was greater than 100 µM and the TGI (HOP-92 NSCLC) was greater than 100 µM. It also gave a TGI (A549 NSCLC) greater than 100 µM, a TGI (MALME-3M melanoma) greater than 100 µM and a TGI (A498 renal) greater than 100 µM. For the same compound, the TGI (SF-268 CNS) was greater than 100 µM.
`CC1OC(OC2C(O)COC(OC3C(C)OC(OC4C(OC(=O)[C@]56CCC(C)(C)C[C@@H]5C5=CCC7[C@@]8(C)C[C@H](O)[C@H](OC9OC(CO)C(O)C(OC%10OC(CO)C(O)C(O)C%10O)C9O)[C@@](C)(CO)[C@@H]8CC[C@@]7(C)[C@]5(C)CC6)OCC(O)C4O)C(O)C3OC3OCC(O)C(O)C3O)C2O)C(O)C(O)C1O` (stereo partly drawn) showed a TGI (MDA-MB-435) of 7.72 µM, a TGI (HS 578T breast) of 34.8 µM and a TGI (SF-539 CNS) of 32.1 µM. The TGI (OVCAR-8 ovarian) was 29 µM, the TGI (IGROV1 ovarian) was 24.5 µM and the TGI (LOX IMVI melanoma) was 29.6 µM. The TGI (SK-MEL-2 melanoma) was 11.7 µM, the TGI (T-47D breast) was 14 µM and the TGI (MCF7 breast) was 43.5 µM. For the same compound, the TGI (HOP-92 NSCLC) was 31.1 µM, the TGI (A549 NSCLC) was 4.29 µM and the TGI (MALME-3M melanoma) was 29.9 µM. For the same compound, the TGI (A498 renal) was 5 µM and the TGI (SF-268 CNS) was 30 µM.
